Patent US8710062B2, “Piperazinedione compounds” (Taipei Medical University, priority 2011, dated 2014)
Structures can show the parent of a compound that is named as a salt.

Experiments:
[1] = tested on: human HL-60 promyelocytic leukemia xenograft; test: HL-60 xenograft in SCID mice; details: for median TTE (time to endpoint): control median TTE 11.0 days
Experimental: Nude-athymic mice were maintained in accordance with the Institutional Animal Care and Use Committee procedures and guidelines.
The medium was supplemented with 10% heat-inactivated fetal bovine serum and 2 mM glutamine.
The human HL-60 promyelocytic leukemia cells used for implantation were harvested during log phase growth and resuspended in phosphate-buffered saline at 8.0×10^7 cells/mL. Each mouse was injected s.c. in the right flank with 1.6×10^7 cells (0.2 mL cell suspension). Tumors were monitored twice weekly and then daily as their volumes approached 100 mm^3. […] Tumor size, in mm3, was calculated as: Tumor Volume=w2×l, where w=width and l=length in mm of the tumor. Tumor weight can be estimated with the assumption that 1 mg is equivalent to 1 mm3 of tumor volume.
The agent was given dose at 5 mg/kg once every day (qd) and every other day (q2d) to endpoint. Treatments began on Day 1 (D1) in groups of male SCID mice (n=6) bearing established (˜444.4 mm3) subcutaneous tumors. […] Logrank tests determine significance of the differences between TTE values for drug-treated and control mice, at P≦0.05.

[2] = biological target: RET (Homo sapiens, UniProt P07949); test: Kinome inhibition assay; format: biochemical
Experimental: (§1) Kinome inhibition studies were conducted following the procedures described in literature. […] In general, each purified kinase was incubated with its substrate in buffer (MOPS buffer or HEPES buffer) containing an essential metal co-enzyme or cofactor, antioxidant, and ATP (gamma-P^32 radio-labeled ATP or cold ATP). Compound 2 was co-incubated with the kinase solution thus obtained for 0.5-1 hr at 37° C. The reaction was stopped by boiling the reaction solution with an extra SDS solution. The phosphorylation level of the substrate was monitored ether by quantification of the radio-labeled substrate or by quantification of phosphor-substrate specific antibodies. In each study, a reference standard was run as an integral part to ensure the validity of the experimental results obtained. The table below includes the IC50 values obtained from this experiment.

[3] = biological target: LMK1 (Homo sapiens, UniProt P53667); test: Kinome inhibition assay; format: biochemical
Experimental: as §1

[4] = biological target: PDK1 (Homo sapiens, UniProt O15530); test: Kinome inhibition assay; format: biochemical
Experimental: as §1

[5] = biological target: MET (HGFR) (Homo sapiens, UniProt P08581); test: Kinome inhibition assay; format: biochemical
Sequence of MET (HGFR) (P08581 25-1390): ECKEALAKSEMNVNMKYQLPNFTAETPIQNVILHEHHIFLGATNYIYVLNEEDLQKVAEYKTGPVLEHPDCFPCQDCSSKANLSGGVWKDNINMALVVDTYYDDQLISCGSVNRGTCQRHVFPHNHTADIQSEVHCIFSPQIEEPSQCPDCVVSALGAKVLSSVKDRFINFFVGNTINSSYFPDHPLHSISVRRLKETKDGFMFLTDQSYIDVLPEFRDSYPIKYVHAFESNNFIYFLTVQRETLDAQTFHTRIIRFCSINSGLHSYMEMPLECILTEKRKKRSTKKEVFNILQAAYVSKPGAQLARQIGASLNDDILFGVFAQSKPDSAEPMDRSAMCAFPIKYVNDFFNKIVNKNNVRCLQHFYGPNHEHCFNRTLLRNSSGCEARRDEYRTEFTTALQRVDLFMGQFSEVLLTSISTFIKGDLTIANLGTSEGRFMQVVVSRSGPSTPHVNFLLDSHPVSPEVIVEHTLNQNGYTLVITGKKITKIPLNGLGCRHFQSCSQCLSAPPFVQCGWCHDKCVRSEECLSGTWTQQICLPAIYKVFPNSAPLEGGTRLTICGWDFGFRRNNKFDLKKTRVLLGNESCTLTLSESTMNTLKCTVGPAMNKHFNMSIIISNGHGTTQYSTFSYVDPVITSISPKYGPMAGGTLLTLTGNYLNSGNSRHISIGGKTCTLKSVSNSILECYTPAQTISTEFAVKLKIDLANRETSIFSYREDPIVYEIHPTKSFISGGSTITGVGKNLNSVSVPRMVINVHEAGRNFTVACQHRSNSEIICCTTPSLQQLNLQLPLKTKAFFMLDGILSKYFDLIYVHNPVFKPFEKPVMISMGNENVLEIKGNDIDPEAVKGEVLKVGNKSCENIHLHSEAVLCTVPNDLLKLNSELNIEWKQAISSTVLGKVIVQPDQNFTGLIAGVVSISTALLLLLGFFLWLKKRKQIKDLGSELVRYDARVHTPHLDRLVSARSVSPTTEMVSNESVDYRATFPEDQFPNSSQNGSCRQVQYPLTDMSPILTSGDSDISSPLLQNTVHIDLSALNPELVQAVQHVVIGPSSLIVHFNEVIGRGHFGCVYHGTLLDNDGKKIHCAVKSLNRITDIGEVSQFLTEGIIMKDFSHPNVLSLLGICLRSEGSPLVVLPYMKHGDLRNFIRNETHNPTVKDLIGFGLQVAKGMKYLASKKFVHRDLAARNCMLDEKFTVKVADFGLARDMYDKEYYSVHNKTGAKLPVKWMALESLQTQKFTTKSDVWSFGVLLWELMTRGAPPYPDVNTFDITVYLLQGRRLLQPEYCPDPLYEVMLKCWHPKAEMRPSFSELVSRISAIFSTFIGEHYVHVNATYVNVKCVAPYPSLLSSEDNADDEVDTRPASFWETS
Experimental: as §1

[6] = biological target: PIM1 (Homo sapiens, UniProt P11309); test: Kinome inhibition assay; format: biochemical
Experimental: as §1

[7] = biological target: SRPK1 (Homo sapiens, UniProt Q96SB4); test: Kinome inhibition assay; format: biochemical
Experimental: as §1

[8] = biological target: AURKA (Aurora-A) (Homo sapiens, UniProt O14965); test: Kinome inhibition assay; format: biochemical
Experimental: as §1

[9] = biological target: FER (TYK3) (Homo sapiens, UniProt P16591); test: Kinome inhibition assay; format: biochemical
Experimental: as §1

[10] = biological target: GSK3B (Homo sapiens, UniProt P49841); test: Kinome inhibition assay; format: biochemical
Experimental: as §1

[11] = biological target: Insulin Receptor (Homo sapiens, UniProt P06213); test: Kinome inhibition assay; format: biochemical
Experimental: as §1

[12] = biological target: RP56KA5 (MSK1) (Homo sapiens, UniProt O75582); test: Kinome inhibition assay; format: biochemical
Sequence of RP56KA5 (MSK1) (O75582 whole entry): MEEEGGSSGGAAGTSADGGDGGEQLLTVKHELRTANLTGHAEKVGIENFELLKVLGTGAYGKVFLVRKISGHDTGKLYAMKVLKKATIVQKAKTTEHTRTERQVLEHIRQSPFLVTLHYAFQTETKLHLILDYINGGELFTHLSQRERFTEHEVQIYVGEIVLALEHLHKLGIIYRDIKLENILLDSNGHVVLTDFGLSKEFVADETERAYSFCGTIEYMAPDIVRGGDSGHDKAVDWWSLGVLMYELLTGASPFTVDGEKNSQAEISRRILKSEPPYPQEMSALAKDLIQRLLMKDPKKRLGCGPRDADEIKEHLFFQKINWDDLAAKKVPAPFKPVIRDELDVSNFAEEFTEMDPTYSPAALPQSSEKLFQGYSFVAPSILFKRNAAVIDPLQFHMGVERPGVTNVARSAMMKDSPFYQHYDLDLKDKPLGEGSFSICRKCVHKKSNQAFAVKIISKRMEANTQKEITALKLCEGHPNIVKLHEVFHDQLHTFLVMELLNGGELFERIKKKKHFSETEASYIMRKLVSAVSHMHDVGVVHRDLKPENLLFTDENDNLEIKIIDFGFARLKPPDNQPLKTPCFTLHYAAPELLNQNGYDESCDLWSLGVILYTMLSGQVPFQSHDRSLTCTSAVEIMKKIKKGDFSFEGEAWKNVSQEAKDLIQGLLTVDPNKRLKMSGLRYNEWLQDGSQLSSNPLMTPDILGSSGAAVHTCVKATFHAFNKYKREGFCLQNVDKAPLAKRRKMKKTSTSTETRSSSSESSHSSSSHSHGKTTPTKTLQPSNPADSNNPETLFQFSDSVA
Experimental: as §1

[13] = biological target: NTRK1 (TRKA) (Homo sapiens, UniProt P04629); test: Kinome inhibition assay; format: biochemical
Sequence of NTRK1 (TRKA) (P04629 33-796): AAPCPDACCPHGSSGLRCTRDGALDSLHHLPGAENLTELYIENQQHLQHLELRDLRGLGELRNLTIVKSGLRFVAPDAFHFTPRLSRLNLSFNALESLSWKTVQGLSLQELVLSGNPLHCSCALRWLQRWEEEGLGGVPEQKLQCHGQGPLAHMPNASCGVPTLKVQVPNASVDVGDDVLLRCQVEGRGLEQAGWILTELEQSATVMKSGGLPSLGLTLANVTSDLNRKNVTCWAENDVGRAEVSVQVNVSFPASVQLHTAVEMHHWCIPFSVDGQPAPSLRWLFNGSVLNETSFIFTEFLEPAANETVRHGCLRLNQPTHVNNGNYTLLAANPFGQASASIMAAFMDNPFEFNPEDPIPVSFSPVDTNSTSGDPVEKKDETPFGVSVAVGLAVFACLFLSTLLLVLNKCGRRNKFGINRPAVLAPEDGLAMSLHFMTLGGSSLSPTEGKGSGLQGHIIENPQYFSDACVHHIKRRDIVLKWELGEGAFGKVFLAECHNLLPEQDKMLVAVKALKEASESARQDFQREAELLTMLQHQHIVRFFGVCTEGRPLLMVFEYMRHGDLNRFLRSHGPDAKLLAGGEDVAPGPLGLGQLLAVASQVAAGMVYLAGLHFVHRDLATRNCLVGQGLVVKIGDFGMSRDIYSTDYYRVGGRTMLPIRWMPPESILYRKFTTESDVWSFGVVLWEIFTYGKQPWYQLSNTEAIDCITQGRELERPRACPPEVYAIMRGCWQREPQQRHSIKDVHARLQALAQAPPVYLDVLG
Experimental: as §1

[14] = biological target: SGK2 (Homo sapiens, UniProt Q9HBY8); test: Kinome inhibition assay; format: biochemical
Sequence of SGK2 (Q9HBY8 whole entry): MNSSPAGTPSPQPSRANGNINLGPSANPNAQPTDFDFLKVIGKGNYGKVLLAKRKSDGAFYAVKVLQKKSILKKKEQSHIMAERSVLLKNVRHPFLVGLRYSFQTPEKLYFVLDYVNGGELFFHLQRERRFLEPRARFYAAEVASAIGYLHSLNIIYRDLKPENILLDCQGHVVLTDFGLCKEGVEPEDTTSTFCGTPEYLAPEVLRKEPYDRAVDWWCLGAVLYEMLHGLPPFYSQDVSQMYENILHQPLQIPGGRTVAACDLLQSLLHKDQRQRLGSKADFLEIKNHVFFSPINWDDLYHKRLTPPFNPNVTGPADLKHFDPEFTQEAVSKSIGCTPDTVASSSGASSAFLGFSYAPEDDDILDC
Experimental: as §1

[15] = biological target: ABL1 (Mus musculus, UniProt P00520); test: Kinome inhibition assay; format: biochemical
Experimental: as §1

[16] = biological target: ERBB2 (HER2) (Homo sapiens, UniProt P04626); test: Kinome inhibition assay; format: biochemical
Sequence of ERBB2 (HER2) (P04626 23-1255): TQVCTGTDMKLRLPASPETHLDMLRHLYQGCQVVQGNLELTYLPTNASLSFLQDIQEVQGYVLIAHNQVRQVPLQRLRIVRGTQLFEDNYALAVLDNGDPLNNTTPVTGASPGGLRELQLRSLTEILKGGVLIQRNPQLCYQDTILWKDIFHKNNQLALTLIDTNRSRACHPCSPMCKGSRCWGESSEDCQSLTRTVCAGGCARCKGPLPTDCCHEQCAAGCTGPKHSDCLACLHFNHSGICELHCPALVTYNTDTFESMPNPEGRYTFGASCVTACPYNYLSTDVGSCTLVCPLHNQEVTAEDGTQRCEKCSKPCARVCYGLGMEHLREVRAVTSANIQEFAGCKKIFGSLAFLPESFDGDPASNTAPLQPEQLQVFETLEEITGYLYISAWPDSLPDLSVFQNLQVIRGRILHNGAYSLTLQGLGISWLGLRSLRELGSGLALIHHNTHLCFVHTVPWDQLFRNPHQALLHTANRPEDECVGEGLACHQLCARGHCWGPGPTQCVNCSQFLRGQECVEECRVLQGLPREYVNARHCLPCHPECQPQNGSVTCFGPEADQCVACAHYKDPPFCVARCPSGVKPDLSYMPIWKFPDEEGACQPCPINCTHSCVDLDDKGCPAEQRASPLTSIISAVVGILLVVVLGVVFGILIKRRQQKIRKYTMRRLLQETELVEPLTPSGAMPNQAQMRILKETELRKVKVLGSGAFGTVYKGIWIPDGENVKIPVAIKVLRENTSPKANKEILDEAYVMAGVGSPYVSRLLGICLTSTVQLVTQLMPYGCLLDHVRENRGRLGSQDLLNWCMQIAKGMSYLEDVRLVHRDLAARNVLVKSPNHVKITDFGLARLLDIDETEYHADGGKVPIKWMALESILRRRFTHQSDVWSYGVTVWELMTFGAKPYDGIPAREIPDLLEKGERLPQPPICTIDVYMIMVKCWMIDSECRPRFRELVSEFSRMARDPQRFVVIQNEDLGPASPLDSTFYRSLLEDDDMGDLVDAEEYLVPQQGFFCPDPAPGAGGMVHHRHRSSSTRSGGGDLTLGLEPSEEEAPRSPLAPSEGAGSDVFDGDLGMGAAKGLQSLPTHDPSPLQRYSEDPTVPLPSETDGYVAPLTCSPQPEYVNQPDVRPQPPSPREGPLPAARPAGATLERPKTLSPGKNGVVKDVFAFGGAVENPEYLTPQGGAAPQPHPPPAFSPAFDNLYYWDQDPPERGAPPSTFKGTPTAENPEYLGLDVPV
Experimental: as §1

[17] = biological target: MAPK8 (JNK1) (Homo sapiens, UniProt P45983); test: Kinome inhibition assay; format: biochemical
Experimental: as §1

[18] = biological target: CAMK2D (KCC2D) (Homo sapiens, UniProt Q13557); test: Kinome inhibition assay; format: biochemical
Sequence of CAMK2D (KCC2D) (Q13557 whole entry): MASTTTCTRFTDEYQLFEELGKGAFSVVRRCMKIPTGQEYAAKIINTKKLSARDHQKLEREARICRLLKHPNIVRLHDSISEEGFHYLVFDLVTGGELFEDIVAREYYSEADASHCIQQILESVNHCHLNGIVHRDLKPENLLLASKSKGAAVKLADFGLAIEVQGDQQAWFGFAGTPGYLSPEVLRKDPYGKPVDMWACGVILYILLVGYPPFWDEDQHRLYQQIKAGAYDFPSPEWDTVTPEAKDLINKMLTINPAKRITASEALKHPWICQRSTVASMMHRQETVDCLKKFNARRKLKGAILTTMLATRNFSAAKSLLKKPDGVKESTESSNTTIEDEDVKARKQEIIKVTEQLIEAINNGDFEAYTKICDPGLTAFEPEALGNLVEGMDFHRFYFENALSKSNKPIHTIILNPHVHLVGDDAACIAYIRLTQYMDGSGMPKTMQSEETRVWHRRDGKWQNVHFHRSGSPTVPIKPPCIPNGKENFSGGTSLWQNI
Experimental: as §1

[19] = biological target: CDC42BPB (Homo sapiens, UniProt Q9Y5S2); test: Kinome inhibition assay; format: biochemical
Experimental: as §1

[20] = biological target: SGK1 (Homo sapiens, UniProt O00141); test: Kinome inhibition assay; format: biochemical
Experimental: as §1

[21] = biological target: AKT1 (PRKBA) (Homo sapiens, UniProt P31749); test: Kinome inhibition assay; format: biochemical
Experimental: as §1

[22] = 5 mg/kg p.o. every other day (q2d)
[23] = @ 10 μM, read-out: Single dose inhibition
[24] = @ 30 μM, read-out: Single dose inhibition

`O=c1[nH]/c(=C\c2ccc(OCc3ccncc3)cn2)c(=O)[nH]/c1=C\c1ccccc1` [Compound 2, 3-benzylidene-6-((5-(pyridin-4-ylmethoxy)pyridin-2-yl)methylene)piperazine-2,5-dione methanesulfonic acid salt] was tested, and the “% TGD (percent tumor growth delay)” value [1, 22] was 120%, the “T−C” value [1, 22] was 13.2 days and the “median TTE (time to endpoint)” value [1, 22] was 24.2 days. For the same compound, the “maximum BW loss” value ([1]; 5 mg/kg p.o. every other day (q2d), on day 8) was 4.2%, the “% TGD (percent tumor growth delay)” value ([1]; 5 mg/kg p.o. once a day (qd)) was 29% and the “T−C” value ([1]; 5 mg/kg p.o. once a day (qd)) was 3.2 days. The “median TTE (time to endpoint)” value ([1]; 5 mg/kg p.o. once a day (qd)) was 14.2 days, the treatment related deaths ([1]; 5 mg/kg p.o. once a day (qd), n=6) was “Two” and the “maximum BW loss” value ([1]; 5 mg/kg p.o. once a day (qd), on day 11) was 1.9%. The inhibition at 10 µM [2, 23] was 73%, the IC50 ([2]; RET, Human) was 4.89 µM and the inhibition at 10 µM [3, 23] was 68%. The IC50 ([3]; LMK1, Human) was 5.8 µM, the inhibition at 10 µM [4, 23] was 59% and the IC50 ([4]; PDK1, Human) was 8.18 µM. It also gave an inhibition at 30 µM [5, 24] of 79%, an IC50 ([5]; MET (HGFR), Human) of 12.3 µM and an inhibition at 30 µM [6, 24] of 98%. The IC50 ([6]; PIM1, Human) was 9.52 µM, the inhibition at 10 µM [7, 23] was 61% and the IC50 ([7]; SRPK1, Human) was 10.6 µM. It also gave an inhibition at 30 µM [8, 24] of 73%, an IC50 ([8]; AURKA (Aurora-A), Human) of 13.7 µM and an inhibition at 10 µM [9, 23] of 55%. It also gave an IC50 ([9]; FER (TYK3), Human) of 7.23 µM, an inhibition at 30 µM [10, 24] of 69% and an IC50 ([10]; GSK3B, Human) of 10.9 µM. It also gave an inhibition at 3 µM ([11]; @ 3 μM, read-out: Single dose inhibition) of 70%, an IC50 ([11]; Insulin Receptor, Human) of 1.83 µM and an inhibition at 10 µM [12, 23] of 53%. It also gave an IC50 ([12]; RP56KA5 (MSK1), Human) of 7.88 µM, an inhibition at 30 µM [13, 24] of 66% and an IC50 ([13]; NTRK1 (TRKA), Human) of 17.4 µM. It also gave an inhibition at 10 µM [14, 23] of 78%, an IC50 ([14]; SGK2, Human) of 3.55 µM and an inhibition at 10 µM [15, 23] of 90%. It also gave an IC50 ([15]; ABL1, Mouse) of 3.17 µM, an inhibition at 10 µM [16, 23] of 69% and an IC50 ([16]; ERBB2 (HER2), Human) of 5.56 µM. It also gave an inhibition at 10 µM [17, 23] of 74%, an IC50 ([17]; MAPK8 (JNK1), Human) of 4.79 µM and an inhibition at 10 µM [18, 23] of 70%. The IC50 ([18]; CAMK2D (KCC2D), Human) was 7.39 µM, the inhibition at 10 µM [19, 23] was 52% and the IC50 ([19]; CDC42BPB, Human) was 8.18 µM. It also gave an inhibition at 10 µM [20, 23] of 83%, an IC50 ([20]; SGK1, Human) of 2.92 µM and an inhibition at 10 µM [21, 23] of 93%. It also gave an IC50 ([21]; AKT1 (PRKBA), Human) of 3.93 µM.
